Data on one compound can be found in patent US20020028938A1, “Prostaglandin endoperoxide H synthase biosynthesis inhibitors” (priority 1997, published 2002).

The structures appear in SMILES notation.

Broadly, the IC50 is the point on the concentration scale where inhibition reaches its midpoint. A word on the melting point: it is the temperature, or range, at which the solid turns liquid. The term ED50 denotes the dose that gives a 50% effect, or the effect in half of the subjects. The low end stands for greater potency, the high end for weaker potency.

For data set [1], the target named is T1, Cox-1 in Monocyte U937 cells (Homo sapiens, UniProt P23219).
T1 construct: endogenous in cells; host or cells: U937 monocyte cells (ATCC)
The data set can be described thus: Monocyte U937 cell Cox-1 assay. In kind it is cell-based. Conditions: read-out: U937 IC50 (parenthetical value). How it is done:
Human amnionic WISH cells were grown to 80% confluence in 48 well plates. Following removal of the growth medium and two washings with Geys Balanced Salt Solutn, 5 ng IL-1β /ml (UBI, Lake Placid, N.Y.) was added to the cells with or without test compound in DMSO (0.01% v/v) in Neuman-Tytell Serumless Medium (GIBCO, Grand Island, N.Y.). Following an 18 hour incubation to allow for the maximal induction of PGHS-2, the conditioned medium was removed and assayed for PGE2 content by EIA analysis as described above.
Monocyte U937 (ATCC, Rockville, Md.) cells were grown in a similar fashion to the WISH cells. After incubation, the conditioned medium was removed and assayed for […] by EIA analysis as described above.

In data set [2] the test system is prostaglandin biosynthesis in vivo (pleural lavage eicosanoids). The data set can be described thus: Rat carrageenan pleural inflammation (CIP) model. The gist of the method:
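Male adrenalectomized Sprague-Dawley rats were dosed orally with compound suspended in PEG 400, 30 minutes before intrapleural 2% lambda carrageenan. Pleural lavage collected 4 hours later went into methanol (66% final), and eicosanoids were measured by EIA. Inhibition relative to control mean; ED50 by linear regression.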

In data set [3] the target is T2, recombinant human Cox-1 (r-hu Cox1) (Homo sapiens, UniProt P23219).
T2 construct: made in house; host or cells: baculovirus/Sf9 insect cells (microsomes)
The data set can be described thus: Recombinant human PGHS-1 enzyme assay (RHUCX1). Conditions: read-out: RHUCX1 % Inh. at Dose. In kind it is biochemical. Put shortly: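 Prostaglandin biosynthesis was measured as PGE2 output, read by enzyme immunoassay after a 2.5-minute room-temperature reaction stopped with HCl and neutralized with NaOH.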

T2 sequence (P23219 24-599): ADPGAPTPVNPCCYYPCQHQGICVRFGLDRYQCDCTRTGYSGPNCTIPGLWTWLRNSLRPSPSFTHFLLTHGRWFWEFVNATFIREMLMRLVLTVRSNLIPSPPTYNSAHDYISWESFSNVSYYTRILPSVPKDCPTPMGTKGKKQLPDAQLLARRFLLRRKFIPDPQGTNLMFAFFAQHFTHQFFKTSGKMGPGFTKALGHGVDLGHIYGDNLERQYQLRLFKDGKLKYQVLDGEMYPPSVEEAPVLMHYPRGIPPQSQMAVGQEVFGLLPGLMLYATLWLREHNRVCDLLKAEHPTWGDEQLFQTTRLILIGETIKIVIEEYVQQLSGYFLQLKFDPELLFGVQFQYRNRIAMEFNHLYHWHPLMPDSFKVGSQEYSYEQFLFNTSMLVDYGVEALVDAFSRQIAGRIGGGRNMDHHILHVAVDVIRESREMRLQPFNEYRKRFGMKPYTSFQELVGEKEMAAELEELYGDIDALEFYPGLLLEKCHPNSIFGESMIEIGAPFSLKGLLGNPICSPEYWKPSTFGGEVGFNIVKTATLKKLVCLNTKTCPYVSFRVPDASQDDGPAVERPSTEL
T1 sequence (P23219 24-599): as above

`NS(=O)(=O)c1ccc(-c2cnn(-c3ccc(F)cc3)c(=O)c2-c2ccc(F)cc2)cc1` [Example 89] returned a melting point of 213 to 216 °C. The IC50 in data set [1] stood at 3.8 µM. Further, in data set [2] (4 h, 10 mpk oral, read-out: CIP % Inhib. @ 10 mpk), the inhibition in vivo at 10 mg/kg was found to be 68.3%. It took a dose of 3.4 mg/kg to reach the 50% effect level in data set [2] (oral) (ED50). Besides, the inhibition at 10 µM in data set [3] (10 μM) amounted to 40%. The inhibition at 30 µM in data set [3] (30 μM) came out at 62%.
